What was measured:
LipO = LipO (Streptomyces sp. SANK 60405, UniProt D4QF28); assay: UV/Vis spectroscopy, co-purification; assay type: binding; settings: co-purified cofactor, Lys282 internal aldimine expected
LipN = LipN (Streptomyces sp. SANK 60405, UniProt D4QF27); assay: HPLC, MS and NMR of product; assay type: biochemical; settings: sugar donor, uridine as surrogate acceptor, 5 mM MgCl2, 30 °C
purified protein = substrate: NC[C@H]1O[C@@H](n2ccc(=O)[nH]c2=O)[C@H](O)[C@@H]1O; assay: purified protein; assay type: biochemical, Escherichia coli; settings: pH 7.5, […] phosphate, 30 °C

Cc1ncc(COP(=O)(O)O)c(C=O)c1O [PLP]
UV/Vis spectroscopy, co-purification (LipO): shown by UV/Vis spectroscopy to co-purify with the cofactor PLP

NC[C@H]1O[C@H](OP(=O)(O)OP(=O)(O)OC[C@H]2O[C@@H](n3ccc(=O)[nH]c3=O)[C@H](O)[C@@H]2O)[C@H](O)[C@@H]1O [UDP-5-amino-5-deoxy-α-D-ribose]
HPLC, MS and NMR of product; donor generated in situ by LipP and LipM (LipN): higher yields were obtained with the genuine sugar donor UDP-5-amino-5-deoxy-α-D-ribose

B1: EcUdp (Escherichia coli K-12) (protein)
chain: SKSDVFHLGLTKNDLQGATLAIVPGDPDRVEKIAALMDKPVKLASHREFTTWRAELDGKPVIVCSTGIGGPSTSIAVEELAQLGIRTFLRIGTTGAIQPHINVGDVLVTTASVRLDGASLHFAPLEFPAVADFECTTALVEAAKSIGATTHVGVTASSDTFYPGQERYDTYSGRVVRHFKGSMEEWQAMGVMNYEMESATLLTMCASQGLRAGMVAGVIVNRTQQEIPNAETMKQTESHAVKIVVEAARRLL
Km (purified protein): (2.0 ± 0.5) × 10^3 µM | kcat (purified protein): 5.33 ± 0.667 s⁻¹

Reference: article PMC3174061 (Journal of the American Chemical Society, 2011)
